# Reference: US8163771B2, “11 β-HSD1 modulators” (Exelixis, Inc., priority 2008, dated 2012)
# Biological target: T1, recombinant human 11 β-HSD1 (Homo sapiens, UniProt P28845)
# T1 construct: made in house; host or cells: E. coli
# Assay: 11 β-HSD1 SPA Assay (Scintillation Proximity Assay)
# Type: biochemical
# How it was run: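 E. coli-expressed human enzyme (30-100 nM) with tritiated cortisone 40 nM and NADPH 1 mM in HEPES buffer pH7.4, 2 hours at room temperature. Stopped with protein A SPA beads carrying anti-cortisol antibody and glycyrrhetinic acid; counted after overnight incubation. IC50 from percent inhibition between no-enzyme and no-compound signals.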
# T1 sequence (P28845 whole entry): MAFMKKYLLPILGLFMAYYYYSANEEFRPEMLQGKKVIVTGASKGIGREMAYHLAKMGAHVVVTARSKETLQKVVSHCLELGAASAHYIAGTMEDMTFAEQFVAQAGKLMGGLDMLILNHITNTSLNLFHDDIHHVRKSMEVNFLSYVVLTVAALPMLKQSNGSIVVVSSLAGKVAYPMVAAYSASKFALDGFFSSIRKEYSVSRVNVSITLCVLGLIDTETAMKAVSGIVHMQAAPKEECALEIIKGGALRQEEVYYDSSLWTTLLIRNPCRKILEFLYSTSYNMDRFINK
row,SMILES,IC50
1,"CC(C)(C(=O)N[C@H]1C[C@H]2CC[C@@H](C1)N2c1ccc(C(=O)NC2CC2)cn1)c1ccccc1 [Example 21, N-cyclopropyl-6-{3-endo-[(2-methyl-2-phenylpropanoyl)amino]-8-azabicyclo[3.2.1]oct-8-yl}pyridine-3-carboxamide]",< 200 nM
2,"CC(C)(Oc1ccc(Cl)cc1C(F)(F)F)C(=O)N[C@H]1C[C@H]2CC[C@@H](C1)N2c1ccc(S(C)(=O)=O)nc1 [Example 299, 2-{[4-chloro-2-(trifluoromethyl)phenyl]oxy}-2-methyl-N-{8-[6-(methylsulfonyl)pyridin-3-yl]-8-azabicyclo[3.2.1]oct-3-endo-yl}propanamide]",< 200 nM
3,"CC(C)(CN1CCCC1)NC(=O)c1ccc(N2[C@@H]3CC[C@H]2C[C@@H](NC(=O)C(C)(C)Oc2ccc(Cl)cc2Cl)C3)nc1 [Example 350, 6-(3-endo-{[2-(2,4-dichlorophenoxy)-2-methylpropanoyl]amino}-8-azabicyclo[3.2.1]oct-8-yl)-N-[2-methyl-1-(pyrrolidin-1-yl)propan-2-yl]pyridine-3-carboxamide]",< 200 nM
4,"CC(C)(Oc1ccc(F)cc1Cl)C(=O)N[C@H]1C[C@H]2CC[C@@H](C1)N2c1ncc(C(=O)NCC(F)(F)F)cc1F [Example 159, 6-[3-endo-({2-[(2-chloro-4-fluorophenyl)oxy]-2-methylpropanoyl}amino)-8-azabicyclo[3.2.1]oct-8-yl]-5-fluoro-N-(2,2,2-trifluoroethyl)pyridine-3-carboxamide]",< 200 nM
5,"CC(C)(Oc1cc(F)c(F)cc1F)C(=O)N[C@H]1C[C@H]2CC[C@@H](C1)N2c1ccc(S(N)(=O)=O)cn1 [Example 216, N-{8-[5-(aminosulfonyl)pyridin-2-yl]-8-azabicyclo[3.2.1]oct-3-endo-yl}-2-methyl-2-[(2,4,5-trifluorophenyl)oxy]propanamide]",< 200 nM
6,"CC(C)(Oc1ccc(Cl)c(Cl)c1)C(=O)N[C@H]1C[C@H]2CC[C@@H](C1)N2c1ccc(S(C)(=O)=O)cn1 [Example 204, 2-[(3,4-dichlorophenyl)oxy]-2-methyl-N-{8-[5-(methylsulfonyl)pyridin-2-yl]-8-azabicyclo[3.2.1]oct-3-endo-yl}propanamide]",< 200 nM
7,"CC(C)(Oc1ccc(Cl)cc1C(F)(F)F)C(=O)N[C@H]1C[C@H]2CC[C@@H](C1)N2c1ccc(NS(C)(=O)=O)cn1 [Example 333, 2-{[4-chloro-2-(trifluoromethyl)phenyl]oxy}-2-methyl-N-(8-{5-[(methylsulfonyl)amino]pyridin-2-yl}-8-azabicyclo[3.2.1]oct-3-endo-yl)propanamide]",< 200 nM
8,"CC(C)(Oc1ccc(F)cc1)C(=O)N[C@H]1C[C@H]2CC[C@@H](C1)N2c1ccc(S(N)(=O)=O)cn1 [Example 264, N-{8-[5-(aminosulfonyl)pyridin-2-yl]-8-azabicyclo[3.2.1]oct-3-endo-yl}-2-[(4-fluorophenyl)oxy]-2-methylpropanamide]",< 200 nM
9,"CC(C)(Oc1cc(OCC(=O)O)c(Cl)cc1Cl)C(=O)N[C@H]1C[C@H]2CC[C@@H](C1)N2c1ccc(C(=O)NCC(F)(F)F)cn1 [Example 413, 2-(2,4-dichloro-5-(2-methyl-1-oxo-1-(8-(5-(2,2,2-trifluoroethylcarbamoyl)pyridin-2-yl)-8-azabicyclo[3.2.1]octan-3-endo-ylamino)propan-2-yloxy)phenoxy)acetic acid]",< 200 nM
10,"CC(C)(Oc1cc(OCCO)c(Cl)cc1Cl)C(=O)NC1CC2CCC(C1)N2c1ccc(C(=O)NC2CC2(F)F)cn1 (stereo not drawn) [Example 392, 6-[3-endo-({2-[2,4-dichloro-5-(2-hydroxyethoxy)phenoxy]-2-methylpropanoyl}amino)-8-azabicyclo[3.2.1]oct-8-yl]-N-(2,2-difluorocyclopropyl)pyridine-3-carboxamide]",< 200 nM
11,"C[C@@H](NC(=O)c1ccc(N2C3CCC2CC(NC(=O)C(C)(C)Oc2cc(F)c(Cl)cc2Cl)C3)nc1)C(F)(F)F (stereo partly drawn) [Example 450, 6-(3-endo-{[2-(2,4-dichloro-5-fluorophenoxy)-2-methylpropanoyl]amino}-8-azabicyclo[3.2.1]oct-8-yl)-N-[(2R)-1,1,1-trifluoropropan-2-yl]pyridine-3-carboxamide]",< 200 nM
12,"CC(C)(Oc1ccc(Cl)cc1Cl)C(=O)N[C@H]1C[C@H]2CC[C@@H](C1)N2c1ccc(C(=O)Nc2ccon2)cn1 [Example 386, 6-(3-endo-{[2-(2,4-dichlorophenoxy)-2-methylpropanoyl]amino}-8-azabicyclo[3.2.1]oct-8-yl)-N-(isoxazol-3-yl)pyridine-3-carboxamide]",< 200 nM
13,"CC(C)(Oc1ccc(Cl)cc1Cl)C(=O)N[C@H]1C[C@H]2CC[C@@H](C1)N2Cc1cccc(C(N)=O)c1 [Example 291, 3-{[3-endo-({2-[(2,4-dichlorophenyl)oxy]-2-methylpropanoyl}amino)-8-azabicyclo[3.2.1]oct-8-yl]methyl}benzamide]",< 2000 nM
14,"CC(C)(Oc1ccccc1)C(=O)N[C@H]1C[C@H]2CC[C@@H](C1)N2c1ccc(C(=O)NC2CC2)cn1 [Example 15, N-cyclopropyl-6-(3-endo-{[2-methyl-2-(phenyloxy)propanoyl]amino}-8-azabicyclo[3.2.1]oct-8-yl)pyridine-3-carboxamide]",< 200 nM
15,"CC(C)(Oc1ccc(F)c(Cl)c1Cl)C(=O)N[C@H]1C[C@H]2CC[C@@H](C1)N2c1ccc(S(C)(=O)=O)cc1 [Example 235, 2-[(2,3-dichloro-4-fluorophenyl)oxy]-2-methyl-N-{8-[4-(methylsulfonyl)phenyl]-8-azabicyclo[3.2.1]oct-3-endo-yl}propanamide]",< 200 nM
16,"CC(C)(Oc1ccc(F)cc1C(F)(F)F)C(=O)N[C@H]1C[C@H]2CC[C@@H](C1)N2c1ccc(C(N)=O)cn1 [Example 168, 6-{3-endo-[(2-{[4-fluoro-2-(trifluoromethyl)phenyl]oxy}-2-methylpropanoyl)amino]-8-azabicyclo[3.2.1]oct-8-yl}pyridine-3-carboxamide]",< 200 nM
17,"CC(C)(Oc1ccc2ccccc2c1Cl)C(=O)N[C@H]1C[C@H]2CC[C@@H](C1)N2c1ccc(C(N)=O)cn1 [Example 271, 6-[3-endo-({2-[(1-chloronaphthalen-2-yl)oxy]-2-methylpropanoyl}amino)-8-azabicyclo[3.2.1]oct-8-yl]pyridine-3-carboxamide]",< 200 nM
18,"CC(C)(Oc1ccc(F)c(Cl)c1Cl)C(=O)N[C@H]1C[C@H]2CC[C@@H](C1)N2c1ccc(NS(C)(=O)=O)cn1 [Example 290, 2-[(2,3-dichloro-4-fluorophenyl)oxy]-2-methyl-N-(8-{5-[(methylsulfonyl)amino]pyridin-2-yl}-8-azabicyclo[3.2.1]oct-3-endo-yl)propanamide]",< 200 nM
19,"CC(C)(Oc1ccc(F)cc1C(C)(C)O)C(=O)N[C@H]1C[C@H]2CC[C@@H](C1)N2c1ccc(C(=O)NCC(F)F)cn1 [Example 467, N-(2,2-difluoroethyl)-6-(3-endo-(2-(4-fluoro-2-(2-hydroxypropan-2-yl)phenoxy)-2-methylpropanamido)-8-azabicyclo[3.2.1]octan-8-yl)nicotinamide]",< 200 nM
20,"CC(C)(Oc1ccc(Cl)cc1)C(=O)N[C@H]1C[C@H]2CC[C@@H](C1)N2c1ccc(S(C)(=O)=O)cn1 [Example 201, 2-[(4-chlorophenyl)oxy]-2-methyl-N-{8-[5-(methylsulfonyl)pyridin-2-yl]-8-azabicyclo[3.2.1]oct-3-endo-yl}propanamide]",< 200 nM
21,"CC(C)(Oc1ccc(Cl)cc1Cl)C(=O)NC1CC2CCC(C1)N2c1ccc(C(=O)N2CC[C@H](O)C2)cn1 (stereo partly drawn) [Example 462, 2-(2,4-dichlorophenoxy)-N-[8-(5-{[(3s)-3-hydroxypyrrolidin-1-yl]carbonyl}pyridin-2-yl)-8-azabicyclo[3.2.1]oct-3-endo-yl]-2-methylpropanamide]",< 200 nM
22,"CC(C)(Oc1ccc(Cl)cc1Cl)C(=O)N[C@H]1C[C@H]2CC[C@@H](C1)N2c1ccc(C(=O)NC2CC2)cn1 [Example 31, N-cyclopropyl-6-[3-endo-({2-[(2,4-dichlorophenyl)oxy]-2-methylpropanoyl}amino)-8-azabicyclo[3.2.1]oct-8-yl]pyridine-3-carboxamide]",< 200 nM
23,"CC(C)(Oc1ccccc1Cl)C(=O)N[C@H]1C[C@H]2CC[C@@H](C1)N2c1ccc(C(=O)NC2CC2)cn1 [Example 24, 6-[3-endo-({2-[(2-chlorophenyl)oxy]-2-methylpropanoyl}amino)-8-azabicyclo[3.2.1]oct-8-yl]-N-cyclopropylpyridine-3-carboxamide]",< 200 nM
24,"CC(C)(Oc1ccc(Cl)cc1F)C(=O)N[C@H]1C[C@H]2CC[C@@H](C1)N2c1ccc(C(=O)NC2CC2)cn1 [Example 41, 6-[3-endo-({2-[(4-chloro-2-fluorophenyl)oxy]-2-methylpropanoyl}amino)-8-azabicyclo[3.2.1]oct-8-yl]-N-cyclopropylpyridine-3-carboxamide]",< 200 nM
25,O=C(N[C@H]1C[C@H]2CC[C@@H](C1)N2c1ncccc1C(F)(F)F)C1(c2ccc(Cl)cc2)CC1 [Example 5],< 2000 nM
26,"C[C@H](NC(=O)c1ccc(N2C3CCC2CC(NC(=O)C(C)(C)Oc2ccc(F)cc2C(F)F)C3)nc1)C(F)(F)F (stereo partly drawn) [Example 418, 6-[3-endo-({2-[2-(difluoromethyl)-4-fluorophenoxy]-2-methylpropanoyl}amino)-8-azabicyclo[3.2.1]oct-8-yl]-N-[(2S)-1,1,1-trifluoropropan-2-yl]pyridine-3-carboxamide]",< 200 nM
27,"CC(C)(Oc1cc(Cl)c(F)cc1Cl)C(=O)N[C@H]1C[C@H]2CC[C@@H](C1)N2c1ncc(C(=O)NCC(F)(F)F)cc1F [Example 162, 6-[3-endo-({2-[(2,5-dichloro-4-fluorophenyl)oxy]-2-methylpropanoyl}amino)-8-azabicyclo[3.2.1]oct-8-yl]-5-fluoro-N-(2,2,2-trifluoroethyl)pyridine-3-carboxamide]",< 200 nM
28,"CC(C)(Oc1cc(C(C)(C)O)c(Cl)cc1Cl)C(=O)N[C@H]1C[C@H]2CC[C@@H](C1)N2c1ccc(C(N)=O)cn1 [Example 473, 6-[3-endo-({2-[2,4-dichloro-5-(2-hydroxypropan-2-yl)phenoxy]-2-methylpropanoyl}amino)-8-azabicyclo[3.2.1]oct-8-yl]pyridine-3-carboxamide]",< 200 nM
